Assay type in all cases: cell-based
One test deals with T1, Noxa/Mcl-1 interaction (Homo sapiens, UniProt Q07820).
T1 construct: expressed in transfected cells; host or cells: HeLa cells
Kind of test: BRET assay, Noxa/Mcl-1 interaction. The note with it: BRET in Hela cells, 10 μM, 16 hours. The protocol:
Hela cells were seeded on 6-well plates and transfected with 200 ng/well of plasmid pRLuc-Bax, pRLuc-Puma or pRLuc-Noxa coding for BRET donors and 1 µg/well of peYFP-Bcl-xL or peYFP-Mcl-1 coding for BRET acceptors (or with pCMV-Bcl-xL or pCMV-Mcl-1 for control). Twenty-four hours after transfection, cells were trypsinized and re-seeded into white 96 well plate flat bottom, incubated for another day, and then treated with drugs for 16 hours at 10 μM. Light emission at 485 nm and 530 nm was measured consecutively using the Mithras fluorescence-luminescence detector LB 940 (Berthold) after adding the luciferase substrate, coelenterazine H (Uptima) at a final concentration of 5 μM. BRET ratios were calculated as described [Terrillon et al. (2003) Mol Endocrinol 17, 677-691, Vo et al. (2012) Eur J Med Chem., 286-93].

The subject of test [1] is IGROV1-R10 ovarian cancer cells. The test can be described thus: Cellular morphology / cell detachment, molecule alone or with Bcl-xL targeting siRNA. How it is done:
(§1) Exponentially growing cells were transfected by siRNA as described below, and after 48 h, cells were continuously exposed to (Het)aromatic oligosystems (10, 25 or 50 μM) dissolved in DMSO (<0.1% of total volume) for 4 to 24 supplementary hours.
(§2) Cells were seeded in 25 cm^2 flasks the day before to reach 30-50% confluency at the time of transfection. The transfection INTERFERin™ reagent (Polyplus Transfection, Strasbourg. France) was added to siRNA diluted in Opti-MEM® reduced serum medium (Invitrogen, Cergy-Pontoise, France) and complexes formation was allowed to proceed for 15 min at RT before being applied to cells. The final siRNA concentration in the flasks was 20 nM.

Test [2] shares this test system. The test can be described thus: DNA content histograms (sub-G1) by flow cytometry. The protocol: as §1
Cells were seeded in 25 cm^2 flasks the day before to reach 30-50% confluency at the time of transfection. The transfection INTERFERin™ reagent (Polyplus Transfection, Strasbourg. France) was added to siRNA diluted in Opti-MEM® reduced serum medium (Invitrogen, Cergy-Pontoise, France) and complexes formation was allowed to proceed for 15 min at RT before being applied to cells. […]
Adherent and floating cells were pooled, washed with 1×PBS and centrifuged at 200 g for 5 min before staining by Annexin V, propidium iodide or both, as recommended by the manufacturer (Roche Diagnostic, Indianapolis, USA). Briefly, 100 μl of Annexin V—Flit or propidium iodide or both were added on the cells pellet (10^6 cells) and incubated 15 minutes at room temperature in obscurity. 500 μl of sample buffer was then added on the suspensions that were thereafter analyzed using a Gallios flow cytometer (Beckman Coulter, Roissy, France) and cell cycle distribution was determined using Kaluza acquisition software (Beckman Coulter).
(In general: In flow cytometry, cells or beads pass a laser one at a time.)

Test [3] shares this test system. The test can be described thus: Nuclear morphology after DAPI staining. More on the design: key to Apoptotic nuclear features: +: a few condensed or fragmented nuclei are observable after DAPI staining; ++: numerous condensed or fragmented nuclei are observable after DAPI staining (20-50%); +++: most of the nuclei are condensed or fragmented. The protocol:
as §1, §2
After treatment, both detached and adherent cells were pooled after trypsinization, applied to a polylysine-coated glass slide by cytocentrifugation and fixed with a solution of ethanol/chloroform/acetic acid (6:3:1). The preparations were then incubated for 15 min at room temperature with 1 μg/ml DAPI solution (Boehringer Mannheim-Roche, Mannheim, Germany), washed in distillated water, mounted under a coverslip in Mowiol (Calbiochem) and analyzed under a fluorescence microscope (BX51, Olympus, Rungis, France).
Cells were fixed with 2.5% glutaraldehyde in PBS buffer, included in agar, rinsed in Sorensen's buffer, post-fixed in osmium tetroxide 1% in Sorensen's buffer, deshydrated in ethanol and embedded in EPON resin. Ultrathin sections were cut and stained with uranyl acetate and lead citrate and examined using a JEOL1011 transmission electron microscope.

The test system is the same in test [4]. Kind of test: Trypan blue exclusion assay. The note with it: IGROV1-R10, Pyridoclax associated to siXL1.
In test [5] the test system is IGROV1-R10 chemoresistant ovarian cancer cells. The test can be described thus: Real-time cellular activity by impedancemetry (xCELLigence). The settings on record: IGROV1-R10, 25 μM Pyridoclax + 5 μM ABT-737. The protocol:
FIG. 4 represents the effect of the association of Pyridoclax with ABT-737 on chemoresistant ovarian cancer cells IGROV1-R10 (top) and SKOV3 (bottom). Cells were concomitantly (A, E) or sequentially (B) exposed to 25 μM Pyridoclax and 5 μM ABT-737, and cellular effects were assessed either longitudinally (A, B, E) or after 24 h (C, D, F). [A, B, E] real time cellular activity assessed by impedancmetry (xCELLigence technology), after concomitant exposure (A, E) or sequential exposure (B; 24 h Pyridoclax, then ABT-737). [C]: Cellular morphology and DNA content histograms after a 24 h concomitant exposure. [D and F]: PARP and caspase 3 cleavage after a 24 h concomitant exposure.
Compound-mediated cytotoxicity was monitored using Real-Time Cell Analyzer multi-plate (RTCA MP) Instrument, xCELLigence System (Roche Applied Science, Mannheim, Germany). This system monitors cellular events in real time measuring electrical impedance across interdigitated micro-electrodes integrated on the bottom of tissue culture E-plates View (Roche). […] Thus, this index reflects changes in cell viability as described by Ke et al. (2011, Methods Mol Biol 740, 33-43). […] Impedance was continuously measured until the end of the treatment. Standard deviations of well replicates were analyzed with the RTCA Software.

[6] abbreviates: IGROV1-R10, Pyridoclax associated to siXL1.

T1 sequence (Q07820 whole entry): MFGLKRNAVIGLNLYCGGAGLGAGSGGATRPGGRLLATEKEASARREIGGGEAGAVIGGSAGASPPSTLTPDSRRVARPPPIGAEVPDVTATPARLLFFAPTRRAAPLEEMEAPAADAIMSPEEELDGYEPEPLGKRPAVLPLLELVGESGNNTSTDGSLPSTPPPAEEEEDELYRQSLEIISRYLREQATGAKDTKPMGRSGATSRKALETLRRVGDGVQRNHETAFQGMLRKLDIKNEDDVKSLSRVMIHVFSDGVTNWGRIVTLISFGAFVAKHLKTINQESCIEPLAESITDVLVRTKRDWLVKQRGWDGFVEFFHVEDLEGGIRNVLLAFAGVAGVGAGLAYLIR

`Cc1cc(-c2ncc(-c3cccnc3)cc2/C=C/c2ccccc2)cnc1-c1cccnc1` [Pyridoclax, 5,6′-di(pyridin-3-yl)-5′-methyl-3-((E)-styryl)-2,3′-bipyridine]: the “effect on Noxa/Mcl-1 interaction” value on Noxa/Mcl-1 interaction was “able to disrupt”. The “effects in response to 10 μM” value in test [1] (IGROV1-R10, Pyridoclax 10 μM associated to siXL1 (data not shown)) is on record as “also observed in a lower extend”. In test [1] (setting [6]), the “Cell detachment” value is recorded as “strong cell detachment” and the “concentration at which effects are optimal” value amounted to 25 µM. For the same compound, the “cell death, agent on its own” value in test [1] (IGROV1-R10, single agent) is “neither Pyridoclax nor the Bcl-xL targeting siRNA (siXL1) induced massive cell death on their own”. The “sub-G1 Peak on the DNA content histogram” value in test [2] (IGROV1-R10, 10 nM siXL1 48 h then 25 μM Pyridoclax 24 h) is reported as “over 50%”. Besides, the “time after beginning of exposure at which apoptosis was observed” value in test [2] (IGROV1-R10, siXL1 + Pyridoclax) was in the range of 2 to 4 h. The “events in sub-G1 fraction” value in test [2] (IGROV1-R10, siXL1 + Pyridoclax, after 4 h exposure) worked out at 37%. The “Sub-G1 (%)” value in test [2] (Molecule + Bcl-xL targeting siRNA) is listed as 53.6%. For the same compound, the “nuclear morphology (DAPI staining and electron microscopy)” value in test [3] (setting [6]) is “nuclear condensations and fragmentations”. The Apoptotic nuclear features entry in test [3] (Molecule + Bcl-xL targeting siRNA, DAPI staining) was “+++”. For the same compound, in test [4], the “number of viable cells” value is “drastic decrease of the number of viable cells”. Also, the “cellular activity (impedancemetry)” value in test [5] is “drastically decreased”.

These data come from patent publication US10307410B2, “Mcl-1 modulating compounds for cancer treatment” (CENTRE REGIONAL DE LUTTE CONTRE LE CANCER FRANCOIS BACLESSE, priority 2014, dated 2019).
